Test results published in patent publication US20240067693A1, “POLYPEPTIDES AND USES THEREOF” (MEDIMMUNE LIMITED, priority 2020, published 2024).
Numbered stars: 1 amine (or outer) side, 2 acyl side, 3 side chain; on linkers, the order of the positions; unused ones are H or OH. Bridge positions count the residues as written; N and C are the ends. Square brackets hold non-standard residues; d marks the D form. Side chains are listed from the residue outwards. Peptide text beside a SMILES is read from it. * marks the point of attachment. C18 diacid = O=C(O)CCCCCCCCCCCCCCCCC(=O)*; γGlu = O=C(O)[C@H](CCC(=O)[*:2])N[*:1]; αMeF = C[C@](N)(Cc1ccccc1)C(=O)O; Aib = CC(C)(N)C(=O)O

Tests used:
[1] = target: T1, human amylin receptor (calcitonin receptor co-expressed with receptor activity modifying protein, RAMP3) (hAMYR3) (Homo sapiens, UniProt O60896+P30988); assay: cAMP production in 1321N1 cells with stable recombinant expression of human amylin receptor (hAMYR3); type: cell-based; conditions: for Ratio (selectivity hAMYR vs hCTR, ratio of EC50 values at the two receptors): EC50 hCTR / EC50 hAMYR3; for EC50: cAMP, 1321N1 cells, assay buffer with 0.1% BSA, read-out: EC50 (pM) hAMYR3
T1 construct: expressed in transfected cells
T1 sequence (P30988 25-474): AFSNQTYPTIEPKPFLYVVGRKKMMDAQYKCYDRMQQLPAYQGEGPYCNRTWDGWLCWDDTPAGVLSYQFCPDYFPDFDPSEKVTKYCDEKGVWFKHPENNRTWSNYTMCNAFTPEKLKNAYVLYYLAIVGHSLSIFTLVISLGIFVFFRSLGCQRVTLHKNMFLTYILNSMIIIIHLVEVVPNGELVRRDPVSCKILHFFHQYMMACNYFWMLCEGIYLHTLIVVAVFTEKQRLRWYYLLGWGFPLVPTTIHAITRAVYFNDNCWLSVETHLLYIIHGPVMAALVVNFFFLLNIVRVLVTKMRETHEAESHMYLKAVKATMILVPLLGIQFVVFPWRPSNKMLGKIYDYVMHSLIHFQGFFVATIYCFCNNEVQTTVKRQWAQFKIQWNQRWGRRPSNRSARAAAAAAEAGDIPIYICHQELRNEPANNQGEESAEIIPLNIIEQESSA
T1 sequence (O60896 24-148 partner): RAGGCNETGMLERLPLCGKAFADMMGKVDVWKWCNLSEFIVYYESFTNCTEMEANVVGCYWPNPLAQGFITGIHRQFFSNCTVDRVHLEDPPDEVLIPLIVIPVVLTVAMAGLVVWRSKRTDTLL
Method in brief: (§1)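 EC50 values come from 4-parameter logistic fits of HTRF cAMP signal, normalised to maximal calcitonin or amylin effect. Peptides were tested in duplicate for 30 min at RT in IBMX-containing (0.5 mM) BSA/HEPES buffer pH 7.4 on stable 1321N1 (human CTR, AMYR3) or HEK (rat CTR, AMYR3) lines.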

[2] = target: T2, human calcitonin receptor (hCTR) (Homo sapiens, UniProt P30988); assay: cAMP production in 1321N1 cells with stable recombinant expression of human calcitonin receptor (hCTR); type: cell-based; conditions: cAMP, 1321N1 cells, assay buffer with 0.1% BSA; read-out: EC50 (pM) hCTR
T2 construct: expressed in transfected cells
T2 sequence (P30988 25-474): T1 sequence (P30988 25-474)
Method in brief: as §1

SMILES	Ratio (selectivity hAMYR vs hCTR, ratio of EC50 values at the two receptors) [1]	EC50 [1]	EC50 [2]
CC[C@H](C)[C@H](NC(=O)[C@@H]1CCCN1C(=O)CNC(=O)[C@H](Cc1ccccc1)NC(=O)[C@H](CC(N)=O)NC(=O)[C@H](CC(N)=O)NC(=O)[C@H](CO)NC(=O)[C@H](CO)NC(=O)[C@H](Cc1c[nH]cn1)NC(=O)C(C)(C)NC(=O)[C@H](CC(C)C)NC(=O)[C@H](Cc1ccccc1)NC(=O)[C@H](CCC(=O)O)NC(=O)[C@H](C)NC(=O)[C@H](CC(C)C)NC(=O)[C@H](CCCNC(=N)N)NC(=O)[C@H](CCC(N)=O)NC(=O)[C@@H](NC(=O)[C@H](C)NC(=O)[C@@H]1CSSC[C@H](NC(=O)[C@H](CCCCN)NC(=O)[C@@H](N)CCCCNC(=O)CC[C@H](NC(=O)CCCCCCCCCCCCCCCCC(=O)O)C(=O)O)C(=O)N[C@@H](CC(N)=O)C(=O)N[C@@H]([C@@H](C)O)C(=O)N[C@@H](C)C(=O)N[C@@H]([C@@H](C)O)C(=O)N1)[C@@H](C)O)C(=O)N[C@@H](CC(C)C)C(=O)N1CCC[C@H]1C(=O)N1CCC[C@H]1C(=O)N[C@H](C(=O)N[C@@H](CC(N)=O)C(=O)N[C@H](C(=O)NCC(=O)N[C@@H](CO)C(=O)N[C@@H](CC(N)=O)C(=O)N[C@H](C(=O)N[C@@H](Cc1ccc(O)cc1)C(N)=O)[C@@H](C)O)C(C)C)[C@@H](C)O [Peptide 128] (H-K([γGlu-C18 diacid])KCNTATCATQRLAEFL[Aib]HSSNNFGPILPPTNVGSNTY-NH2; disulfide 3-8; N-terminus assumed)	4.8	118 pM	568 pM
CC[C@H](C)[C@H](NC(=O)[C@@H]1CCCN1C(=O)CNC(=O)[C@](C)(Cc1ccccc1)NC(=O)[C@H](CC(N)=O)NC(=O)[C@H](CC(N)=O)NC(=O)[C@H](CO)NC(=O)[C@H](CO)NC(=O)[C@H](Cc1c[nH]cn1)NC(=O)[C@@H](NC(=O)[C@H](CC(C)C)NC(=O)[C@H](Cc1ccccc1)NC(=O)[C@H](CC(N)=O)NC(=O)[C@H](C)NC(=O)[C@H](CC(C)C)NC(=O)[C@H](CCCNC(=N)N)NC(=O)[C@H](CCC(N)=O)NC(=O)[C@@H](NC(=O)[C@H](C)NC(=O)[C@@H]1CSSC[C@H](NC(=O)[C@@H](N)CCCCNC(=O)CC[C@H](NC(=O)CC[C@H](NC(=O)CCCCCCCCCCCCCCCCC(=O)O)C(=O)O)C(=O)O)C(=O)N[C@@H](CC(N)=O)C(=O)N[C@@H]([C@@H](C)O)C(=O)N[C@@H](C)C(=O)N[C@@H]([C@@H](C)O)C(=O)N1)[C@@H](C)O)C(C)C)C(=O)N[C@@H](CC(C)C)C(=O)N1CCC[C@H]1C(=O)N1CCC[C@H]1C(=O)N[C@H](C(=O)N[C@@H](CCC(=O)O)C(=O)N[C@H](C(=O)NCC(=O)N[C@@H](CO)C(=O)N[C@@H](CC(N)=O)C(=O)N[C@H](C(=O)N[C@@H](Cc1ccc(O)cc1)C(N)=O)[C@@H](C)O)C(C)C)[C@@H](C)O [Peptide 23, K(γE-γE-C18diacid)[CNTATC]ATQRLANFLVHSSNN(αMePhe)GPILPPTEVGSNTY-amide] (H-K([γGlu-γGlu-C18 diacid])CNTATCATQRLANFLVHSSNN[αMeF]GPILPPTEVGSNTY-NH2; disulfide 2-7)	2	238 pM	589 pM
CC[C@H](C)[C@H](NC(=O)[C@@H]1CCCN1C(=O)CNC(=O)[C@H](Cc1ccccc1)NC(=O)[C@H](CC(N)=O)NC(=O)[C@H](CC(N)=O)NC(=O)[C@H](CO)NC(=O)[C@H](CO)NC(=O)[C@H](Cc1c[nH]cn1)NC(=O)C(C)(C)NC(=O)[C@H](CC(C)C)NC(=O)[C@H](Cc1ccccc1)NC(=O)[C@H](CC(N)=O)NC(=O)[C@H](C)NC(=O)[C@H](CC(C)C)NC(=O)[C@H](CCCNC(=N)N)NC(=O)[C@H](CCC(N)=O)NC(=O)[C@@H](NC(=O)[C@H](C)NC(=O)[C@@H]1CSSC[C@H](NC(=O)[C@H](CCCCN)NC(=O)[C@@H](N)CCCCNC(=O)CC[C@H](NC(=O)CCCCCCCCCCCCCCCCC(=O)O)C(=O)O)C(=O)N[C@@H](CC(N)=O)C(=O)N[C@@H]([C@@H](C)O)C(=O)N[C@@H](C)C(=O)N[C@@H]([C@@H](C)O)C(=O)N1)[C@@H](C)O)C(=O)N[C@@H](CC(C)C)C(=O)N1CCC[C@H]1C(=O)N1CCC[C@H]1C(=O)N[C@H](C(=O)NC(C)(C)C(=O)N[C@H](C(=O)NCC(=O)N[C@@H](CO)C(=O)N[C@@H](CC(N)=O)C(=O)N[C@H](C(=O)N[C@@H](Cc1ccc(O)cc1)C(N)=O)[C@@H](C)O)C(C)C)[C@@H](C)O [Peptide 98, K(γE-C18diacid)K[CNTATC]ATQRLANFL(Aib)HSSNNFGPILPPT(Aib)VGSNTY-amide] (H-K([γGlu-C18 diacid])KCNTATCATQRLANFL[Aib]HSSNNFGPILPPT[Aib]VGSNTY-NH2; disulfide 3-8; N-terminus assumed)	1	942 pM	972 pM

Continued, values first:

Ratio (selectivity hAMYR vs hCTR, ratio of EC50 values at the two receptors) [1]	EC50 [1]	EC50 [2]	SMILES
18	227 pM	4000 pM	CC[C@H](C)[C@H](NC(=O)[C@@H]1CCCN1C(=O)CNC(=O)[C@H](Cc1ccccc1)NC(=O)[C@H](CC(N)=O)NC(=O)C(C)(C)NC(=O)[C@H](CO)NC(=O)[C@H](CO)NC(=O)[C@H](Cc1c[nH]cn1)NC(=O)[C@@H](NC(=O)[C@H](CC(C)C)NC(=O)[C@H](Cc1ccccc1)NC(=O)[C@H](CC(N)=O)NC(=O)[C@H](C)NC(=O)[C@H](CC(C)C)NC(=O)[C@H](CCCNC(=N)N)NC(=O)[C@H](CCC(N)=O)NC(=O)[C@@H](NC(=O)[C@H](C)NC(=O)[C@@H]1CSSC[C@H](NC(=O)[C@@H](N)CCCCNC(=O)CC[C@H](NC(=O)CC[C@H](NC(=O)CCCCCCCCCCCCCCCCC(=O)O)C(=O)O)C(=O)O)C(=O)N[C@@H](CC(N)=O)C(=O)N[C@@H]([C@@H](C)O)C(=O)N[C@@H](C)C(=O)N[C@@H]([C@@H](C)O)C(=O)N1)[C@@H](C)O)C(C)C)C(=O)N[C@@H](CC(C)C)C(=O)N1CCC[C@H]1C(=O)N1CCC[C@H]1C(=O)N[C@H](C(=O)N[C@@H](CC(N)=O)C(=O)N[C@H](C(=O)NCC(=O)N[C@@H](CO)C(=O)N[C@@H](CCCNC(=N)N)C(=O)N[C@H](C(=O)N[C@@H](Cc1ccc(O)cc1)C(N)=O)[C@@H](C)O)C(C)C)[C@@H](C)O [Peptide 72, K(γE-γE-C18diacid)[CNTATC]ATQRLANFLVHSS(Aib)NFGPILPPTNVGSRTY-amide] (H-K([γGlu-γGlu-C18 diacid])CNTATCATQRLANFLVHSS[Aib]NFGPILPPTNVGSRTY-NH2; disulfide 2-7; N-terminus assumed)
9.3	416 pM	3850 pM	CC[C@H](C)[C@H](NC(=O)[C@@H]1CCCN1C(=O)CNC(=O)[C@H](Cc1ccccc1)NC(=O)[C@H](CC(N)=O)NC(=O)[C@@H]1CCCN1C(=O)[C@H](CO)NC(=O)[C@H](CO)NC(=O)[C@H](Cc1c[nH]cn1)NC(=O)C(C)(C)NC(=O)[C@H](CC(C)C)NC(=O)[C@H](Cc1ccccc1)NC(=O)[C@H](CC(N)=O)NC(=O)[C@H](C)NC(=O)[C@H](CC(C)C)NC(=O)[C@H](CCCNC(=N)N)NC(=O)[C@H](CCC(N)=O)NC(=O)[C@@H](NC(=O)[C@H](C)NC(=O)[C@@H]1CSSC[C@H](NC(=O)[C@H](CCCCN)NC(=O)[C@@H](N)CCCCNC(=O)CC[C@H](NC(=O)CCCCCCCCCCCCCCCCC(=O)O)C(=O)O)C(=O)N[C@@H](CC(N)=O)C(=O)N[C@@H]([C@@H](C)O)C(=O)N[C@@H](C)C(=O)N[C@@H]([C@@H](C)O)C(=O)N1)[C@@H](C)O)C(=O)N[C@@H](CC(C)C)C(=O)N1CCC[C@H]1C(=O)N1CCC[C@H]1C(=O)N[C@H](C(=O)N[C@@H](CC(N)=O)C(=O)N[C@H](C(=O)NCC(=O)N[C@@H](CO)C(=O)N[C@@H](CC(N)=O)C(=O)N[C@H](C(=O)N[C@@H](Cc1ccc(O)cc1)C(N)=O)[C@@H](C)O)C(C)C)[C@@H](C)O [Peptide 132] (H-K([γGlu-C18 diacid])KCNTATCATQRLANFL[Aib]HSSPNFGPILPPTNVGSNTY-NH2; disulfide 3-8)
